Measurements as given in patent publication US20080096967A1, “Formulations for Injection of Catecholic Butanes, Including Ndga Compounds, Into Animals” (priority 2005, published 2008).

Experiments:
[1] = set-up: species or system Beagle dogs; settings: in vivo
Description: Following completion of each intravenous infusion, 1 mL of sterile saline was administered as a slow bolus injection to flush the test material from the infusion line into the animal, followed by an injection of heparin-saline solution to fill the infusion line to maintain patency. The animals were observed. Cageside observation included observation for mortality, morbundity, general health, and signs of toxicity. Clinical observations included evaluation of skin and fur characteristics, surgical site, eye and mucous membranes, respiratory, circulatory, autonomic and central nervous systems, and somatomotor and behavior patterns. Blood was collected and placed into 2.5 mL serum separator tubes for serum M4N concentration analysis. The tubes were inverted several times, stored on wet ice, and centrifuged at about 3000 rpm for about 10 min. at 4° C. Serum was transferred to microcentrifuge tubes and stored at −75±10° C.
Samples were shipped on dry ice to the Analytical Chemistry Laboratory of GeneLogic (Gaithersburg, Md., U.S.A.) for test article analysis. The method involved treating aliquots of dog serum, at least 0.5 mL, with acetonitrile, filtering, and injecting the filtrate onto an HPLC column with tandem mass-spectrometry detection (LC-MS/MS). The analyte was quantified using an external standard curve with triazolam as an internal standard.

[2] = M4N stability in HP-β-CD/PEG 300 buffer solutions at 60° C. (RP-HPLC, pH); type: physicochemical; settings: for M4N concentration (stability): 25% PEG300
Description: The stability of 10 mg/mL M4N (prepared in a ratio of 75:25 40% HP-β-CD: 40 mg/mL M4N PEG 300) in 15 mM buffer solutions was evaluated following incubation at 60° C.
2.0 g HP-β-CD was weighed into 5 mL volumetric flasks on an OHAUS Analytical Plus Balance. 1 mL of a 100 mM buffer solution was added to each flask. Each sample was q.s. to 5 mL with WFI.
750 μL 40% HP-β-CD buffered solution was placed in 1.5 mL polypropylene microtubes. […] After gentle inversion of the sample tubes, the pH of each solution was measured using a Orion, Model 420A pH meter. An initial aliquot was removed for RP-HPLC analysis. Test samples were then placed in a Precision 60° C. incubator. The M4N stability was evaluated by RP-HPLC. At each time point, the samples were centrifuged for 2 minutes at 13,000 rpm to pellet any solid M4N.

## COc1ccc(C[C@@H](C)[C@@H](C)Cc2ccc(OC)c(OC)c2)cc1OC [Formulation M4N, meso-1,4-bis(3,4-dimethoxyphenyl)-2,3-dimethylbutane]
[1]; dog
  M4N in serum 16 hr following the infusion period: still detectable
[1]
  M4N serum levels, female dog vs male dog: higher in the female dog
[2]; 10 mg/mL M4N in HP-β-CD/PEG 300, 15 mM buffers, 14 day incubation at 60° C.
  change in concentration of M4N solutions: slight decrease
[2]; 15 mM Acetate, pH 5, 30% HP-β-CD, 0 days at 60° C.
  M4N concentration (stability): 10.6 mg/mL
[2]; 15 mM Acetate, pH 5, 30% HP-β-CD, 2 days at 60° C.
  M4N concentration (stability): 10.2 mg/mL
[2]; 15 mM Acetate, pH 5, 30% HP-β-CD, 6 days at 60° C.
  M4N concentration (stability): 9.6 mg/mL
[2]; 15 mM Acetate, pH 5, 30% HP-β-CD, 10 days at 60° C.
  M4N concentration (stability): 9.7 mg/mL
[2]; 15 mM Acetate, pH 5, 30% HP-β-CD, 14 days at 60° C.
  M4N concentration (stability): 9.6 mg/mL
[2]; 15 mM Acetate, pH 6, 30% HP-β-CD, 0 days at 60° C.
  M4N concentration (stability): 10.5 mg/mL
[2]; 15 mM Acetate, pH 6, 30% HP-β-CD, 2 days at 60° C.
  M4N concentration (stability): 10.1 mg/mL
[2]; 15 mM Acetate, pH 6, 30% HP-β-CD, 6 days at 60° C.
  M4N concentration (stability): 9.7 mg/mL
[2]; 15 mM Acetate, pH 6, 30% HP-β-CD, 10 days at 60° C.
  M4N concentration (stability): 9.7 mg/mL
[2]; 15 mM Acetate, pH 6, 30% HP-β-CD, 14 days at 60° C.
  M4N concentration (stability): 9.6 mg/mL
[2]; 15 mM Borate, pH 10, 30% HP-β-CD, 0 days at 60° C.
  M4N concentration (stability): 10.5 mg/mL
[2]; 15 mM Borate, pH 10, 30% HP-β-CD, 2 days at 60° C.
  M4N concentration (stability): 10.1 mg/mL
[2]; 15 mM Borate, pH 10, 30% HP-β-CD, 6 days at 60° C.
  M4N concentration (stability): 9.7 mg/mL
[2]; 15 mM Borate, pH 10, 30% HP-β-CD, 10 days at 60° C.
  M4N concentration (stability): 9.6 mg/mL
[2]; 15 mM Borate, pH 10, 30% HP-β-CD, 14 days at 60° C.
  M4N concentration (stability): 9.6 mg/mL
[2]; 15 mM Borate, pH 11, 30% HP-β-CD, 0 days at 60° C.
  M4N concentration (stability): 10.5 mg/mL
[2]; 15 mM Borate, pH 11, 30% HP-β-CD, 2 days at 60° C.
  M4N concentration (stability): 10.3 mg/mL
[2]; 15 mM Borate, pH 11, 30% HP-β-CD, 6 days at 60° C.
  M4N concentration (stability): 9.8 mg/mL
[2]; 15 mM Borate, pH 11, 30% HP-β-CD, 10 days at 60° C.
  M4N concentration (stability): 9.5 mg/mL
[2]; 15 mM Borate, pH 11, 30% HP-β-CD, 14 days at 60° C.
  M4N concentration (stability): 9.4 mg/mL
[2]; 15 mM Phosphate, pH 3, 30% HP-β-CD, 0 days at 60° C.
  M4N concentration (stability): 10.3 mg/mL
[2]; 15 mM Phosphate, pH 3, 30% HP-β-CD, 2 days at 60° C.
  M4N concentration (stability): 10.1 mg/mL
[2]; 15 mM Phosphate, pH 3, 30% HP-β-CD, 6 days at 60° C.
  M4N concentration (stability): 9.6 mg/mL
[2]; 15 mM Phosphate, pH 3, 30% HP-β-CD, 10 days at 60° C.
  M4N concentration (stability): 9.7 mg/mL
[2]; 15 mM Phosphate, pH 3, 30% HP-β-CD, 14 days at 60° C.
  M4N concentration (stability): 9.6 mg/mL
[2]; 15 mM Phosphate, pH 4, 30% HP-β-CD, 0 days at 60° C.
  M4N concentration (stability): 10.5 mg/mL
[2]; 15 mM Phosphate, pH 4, 30% HP-β-CD, 2 days at 60° C.
  M4N concentration (stability): 10.1 mg/mL
[2]; 15 mM Phosphate, pH 4, 30% HP-β-CD, 6 days at 60° C.
  M4N concentration (stability): 9.6 mg/mL
[2]; 15 mM Phosphate, pH 4, 30% HP-β-CD, 10 days at 60° C.
  M4N concentration (stability): 9.7 mg/mL
[2]; 15 mM Phosphate, pH 4, 30% HP-β-CD, 14 days at 60° C.
  M4N concentration (stability): 9.6 mg/mL
[2]; 15 mM Phosphate, pH 7, 30% HP-β-CD, 0 days at 60° C.
  M4N concentration (stability): 10.5 mg/mL
[2]; 15 mM Phosphate, pH 7, 30% HP-β-CD, 2 days at 60° C.
  M4N concentration (stability): 10.3 mg/mL
[2]; 15 mM Phosphate, pH 7, 30% HP-β-CD, 6 days at 60° C.
  M4N concentration (stability): 9.7 mg/mL
[2]; 15 mM Phosphate, pH 7, 30% HP-β-CD, 10 days at 60° C.
  M4N concentration (stability): 9.7 mg/mL
[2]; 15 mM Phosphate, pH 7, 30% HP-β-CD, 14 days at 60° C.
  M4N concentration (stability): 9.7 mg/mL
[2]; 15 mM Phosphate, pH 8, 30% HP-β-CD, 0 days at 60° C.
  M4N concentration (stability): 10.6 mg/mL
[2]; 15 mM Phosphate, pH 8, 30% HP-β-CD, 2 days at 60° C.
  M4N concentration (stability): 10.4 mg/mL
[2]; 15 mM Phosphate, pH 8, 30% HP-β-CD, 6 days at 60° C.
  M4N concentration (stability): 9.7 mg/mL
[2]; 15 mM Phosphate, pH 8, 30% HP-β-CD, 10 days at 60° C.
  M4N concentration (stability): 9.8 mg/mL
[2]; 15 mM Phosphate, pH 8, 30% HP-β-CD, 14 days at 60° C.
  M4N concentration (stability): 9.6 mg/mL
[2]; 15 mM Phosphate, pH 9, 30% HP-β-CD, 0 days at 60° C.
  M4N concentration (stability): 10.4 mg/mL
[2]; 15 mM Phosphate, pH 9, 30% HP-β-CD, 2 days at 60° C.
  M4N concentration (stability): 10.2 mg/mL
[2]; 15 mM Phosphate, pH 9, 30% HP-β-CD, 6 days at 60° C.
  M4N concentration (stability): 9.7 mg/mL
[2]; 15 mM Phosphate, pH 9, 30% HP-β-CD, 10 days at 60° C.
  M4N concentration (stability): 9.8 mg/mL
[2]; 15 mM Phosphate, pH 9, 30% HP-β-CD, 14 days at 60° C.
  M4N concentration (stability): 9.7 mg/mL
[2]; 14 day incubation at 60° C.
  M4N impurities, share of total peak area: less than 0.1%
[2]; 14 days at 60° C.
  apparent sample pH during the incubation period: Little if any changes
[2]; WFI, 30% HP-β-CD, 0 days at 60° C.
  M4N concentration (stability): 10.4 mg/mL
[2]; WFI, 30% HP-β-CD, 2 days at 60° C.
  M4N concentration (stability): 10.1 mg/mL
[2]; WFI, 30% HP-β-CD, 6 days at 60° C.
  M4N concentration (stability): 9.9 mg/mL
[2]; WFI, 30% HP-β-CD, 10 days at 60° C.
  M4N concentration (stability): 9.7 mg/mL
[2]; WFI, 30% HP-β-CD, 14 days at 60° C.
  M4N concentration (stability): 9.6 mg/mL
